Results: patent US6716858B1, “Methods for inhibiting diabetic complications” (Kansas University Medical Center, priority 1995, dated 2004)

Legend:
[1] = test system: AGE formation in bovine serum albumin (BSA); test: Uninterrupted glycation of BSA with glucose, anti-AGE ELISA; type: biochemical; conditions: BSA 10 mg/ml, 1.0 M glucose, pH 7.5, 37° C., 6 weeks; inhibitors 3, 15 and 50 mM
Method: (§1) Uninterrupted Glycation with Glucose Bovine serum albumin, ribonuclease A, and human hemoglobin were incubated with glucose at 37° C. in 0.4 M sodium phosphate buffer of pH 7.5 containing 0.02% sodium azide. The protein, glucose (at 1.0 M), and prospective inhibitors (at 0.5, 3, 15 and 50 mM) were introduced into the incubation mixture simultaneously. Solutions were kept in the dark in capped tubes. Aliquots were taken and immediately frozen until analyzed by ELISA at the conclusion of the reaction. The incubations were for 3 weeks (Hb) or 6 weeks (RNase, BSA).
(§2) ELISA detection of AGE products. The general method of Engvall (1981, Methods Enzymol. 70:419-439) was used to perform the ELISA. Typically, glycated protein samples were diluted to approximately 1.5 ug/ml in 0.1 M sodium carbonate buffer of pH 9.5 to 9.7. The protein was coated overnight at room temperature onto 96-well polystyrene plates by pippetting 200 ul of the protein solution in each well (0.3 ug/well). After coating, the protein was washed from the wells with a saline solution containing 0.05% Tween-20. The wells were then blocked with 200 ul of 1% casein in carbonate buffer for 2 h at 37° C. followed by washing. Rabbit anti-AGE antibodies were diluted at a titer of about 1:350 in incubation buffer, and incubated for 1 h at 37° C., followed by washing. In order to minimize background readings, antibodies R479 used to detect glycated RNase were raised against glycated BSA, and antibodies R618 used to detect glycated BSA and glycated Hb were raised against glycated RNase. An alkaline phosphatase-conjugated antibody to rabbit IgG was then added as the secondary antibody at a titer of 1:2000 or 1:2500 (depending on lot) and incubated for 1 h at 37° C., followed by washing. The p-nitrophenylphosphate substrate solution was then added (200 ul/well) to the plates, with the absorbance of the released p-nitrophenolate being monitored at 410 nm with a Dynatech MR 4000 microplate reader.
FIGS. 1 A-D are graphs which show the effect of vitamin B6 derivatives on post-Amadori AGE formation in bovine serum albumin glycated with glucose. BSA (10 mg/ml) was incubated with 1.0 M glucose in the presence and absence of the various indicated derivative in 0.4 M sodium phosphate buffer of pH 7.5 at 37° C. for 6 weeks. Aliquots were assayed by ELISA using R618 anti-AGE antibodies. Concentrations of the inhibitors were 3, 15 and 50 mM. Inhibitors used in FIGS. (1A) Pyridoxamine (PM); (1B) pyridoxal phosphate (PLP); (1C) pyridoxal (PL); (1D) pyridoxine (PN).
FIGS. 2A-D are graphs which show the effect of vitamin B1 derivatives and aminoguanidine (AG) on AGE formation in bovine serum albumin. BSA (10 mg/ml) was incubated with 1.0 M glucose in the presence and absence of the various indicated derivative in 0.4 M sodium phosphate buffer of pH 7.5 at 37° C. for 6 weeks. Aliquots were assayed by ELISA using R618 anti-AGE antibodies. Concentrations of the inhibitors were 3, 15 and 50 mM. Inhibitors used in FIGS. (2A) Thiamine pyrophosphate (TPP); (2B) thiamine monophosphate (TP); (2C) thiamine (T); (2D) aminoguanidine (AG).

[2] = test system: post-Amadori AGE formation, BSA Amadori intermediate; test: Interrupted (post-Amadori) ribose glycation assay, BSA; type: biochemical, bovine
Method: as §2
Glycation was first carried out by incubating protein (10 mg/ml) with 0.5 M ribose at 37° C. in 0.4 M phosphate buffer at pH 7.5 containing 0.2% sodium azide for 24 h in the absence of inhibitors. Glycation was then interrupted to remove excess and reversibly bound (Schiff base) sugar by extensive dialysis against frequent cold buffer changes at 4° C. The glycated intermediate samples containing maximal amount of Amadori product and little AGE (depending on protein) were then quickly warmed to 37° C. without re-addition of ribose. This initiated conversion of Amadori intermediates to AGE products in the absence or presence of various concentrations (typically 3, 15 and 50 mM) of prospective inhibitors. Aliquots were taken and frozen at various intervals for later analysis. The solutions were kept in capped tubes and opened only to remove timed aliquots that were immediately frozen for later carrying out the various analyses.

[3] = test system: glycation of ribonuclease A (RNase); test: Uninterrupted glycation of ribonuclease A with glucose, anti-AGE ELISA; type: biochemical, bovine; conditions: RNase 1 mg/ml, 1.0 M glucose, 6 weeks; inhibitors 0.5, 3, 15 and 50 mM
Method: as §1
ELISA detection of AGE products. The general method of Engvall (1981, Methods Enzymol. 70:419-439) was used to perform the ELISA. Typically, glycated protein samples were diluted to approximately 1.5 ug/ml in 0.1 M sodium carbonate buffer of pH 9.5 to 9.7. […] In order to minimize background readings, antibodies R479 used to detect glycated RNase were raised against glycated BSA, and antibodies R618 used to detect glycated BSA and glycated Hb were raised against glycated RNase. […] The p-nitrophenylphosphate substrate solution was then added (200 ul/well) to the plates, with the absorbance of the released p-nitrophenolate being monitored at 410 nm with a Dynatech MR 4000 microplate reader.

[4] = 24 h in 0.5 M ribose, then free ribose removed, 37° C.

Row | inhibition of antigenic AGE formation (ELISA) [3] | Structure (SMILES) | inhibition of antigenic AGE formation (ELISA) [1] | inhibition of post-Amadori AGE formation ([2]; 50 mM inhibitor) | inhibition of post-Amadori AGE formation [2, 4]
1 | – | N=C(N)NN [aminoguanidine, reference compound] | produced some inhibition of AGE formation in BSA, but less so than the above compounds | about 20% | Comparable results
2 | more effective that aminoguanidine | Cc1ncc(CO)c(CN)c1O [pyridoxamine] | strongly suppressed antigenic AGE formation at even the lowest concentrations tested | – | –
3 | more effective that aminoguanidine | Cc1ncc(C[n+]2csc(CCO[P@](=O)(O)OP(=O)(O)O)c2C)c(N)n1 [thiamine pyrophosphate] | effective at all concentrations tested | – | inhibited AGE formation more effectively than the other B1 derivatives
